The source of these data is patent publication US20230265116A1, “DEGRADATION OF (EGFR) BY CONJUGATION OF EGFR INHIBITORS WITH E3 LIGASE LIGAND AND METHODS OF USE” (BEIGENE, LTD., priority 2020, published 2023).

Usually DC50 stands for the concentration giving 50% degradation. Usually Dmax stands for the greatest extent of degradation seen.

Holding throughout (assay type): cell-based
For experiment [1], the system named is EGFR Del19/C797S (H1975-clone #23). As to the kind of experiment: EGFR degradation HTRF assay, H1975-clone #23 DC cells. The settings on record: 16h treatment; for H1975 #23 DC Dmax (%): maximum percentage of degradation; for DC50: H1975 #23 DC, read-out: H1975 #23 DC DC50. Here is the method:
H1975-clone #28(Del19/T790M/C797S) and H1975-clone #23(Del19/C797S). EGFR-Del19/T790M/C797S and EGFR-Del19/C797S were stably expressed in H1975 cell lines by lentivirus-mediated over-expression, respectively. The EGFR over-expressed cells then underwent gene knockout, in which the EGFR targeting sgRNA was designed to only target the endogenous EGFR copies and preserve the exogenous EGFR copies. Followed by the gene knockout, the edited H1975 cells were seeded in 96 well plates at the concentration of 1 cell/well, cultured for about 2 weeks to allow single clones formation. The formed clones were screened by DNA sequencing and whole exon sequencing analysis for the desired edition. H1975-clone #28 and H1975-clone #23 were finally confirmed as homozygous Del19/T790M/C797S EGFR and Del19/C797S EGFR clones, respectively.
BaF3 WT(wild type), BaF3-LTC(L858R/T790M/C797S) and BaF3-DTC(Del19/T790M/C797S) cells are treated with compounds diluted in 0.2% DMSO cell culture medium and incubate for 16h, 37° C., 5% CO2, H1975-#36, H1975-#28, H1975-#23 and HCC827 cells are treated with compounds diluted in 0.2% DMSO cell culture medium on day 2, incubate for 16h, 37° C., 5% CO2.the final concentriation of compounds in all assay is start with 10 uM, 5-fold dilution, total 8 doses were included.
After 16h treatment, add HTRF lysis buffer to each well; seal the plate and incubate 1 hour at room temperature on a plate shaker; Once the cells are lysed, 16 μL of cell lysate are transferred to a PE 384-well HTRF detection plate; 4 μL of pre-mixed HTRF antibodies are added to each well; Cover the plate with a plate sealer, spin 1000 rpm for 1 min, Incubate overnight at room temperature; Read on BMG PheraStar with HTRF protocol (337 nm-665 nm-620 nm).
The inhibition (degradation) percentage of the compound was calculated by the following equation: Inhibition percentage of Compound=100-100×(Signal-low control)/(High control-low control), wherein signal=each test compound group
High control=Cell group with added DMSO and without compound, indicating microplate readings without EGFR degradation;
Dmax is the maximum percentage of inhibition (degradation).
The IC50 (DC50) value of a compound can be obtained by fitting the following equation
Y=Bottom+(TOP−Bottom)/(1+((IC50/X)^hillslope))
Wherein, X and Y are known values, and IC50, Hillslope, Top and Bottom are the parameters obtained by fitting with software. Y is the inhibition percentage (calculated from the equation), X is the concentration of the compound; IC50 is the concentration of the compound when the 50% inhibition is reached. The smaller the IC50 value is, the stronger the inhibitory ability of the compound is. Vice versa, the higher the IC50 value is, the weaker the inhibitory ability of the compound is; Hillslope represents the slope of the fitted curve, generally around 1*; Bottom represents the minimum value of the curve obtained by data fitting, which is generally 0%±20%; Top represents the maximum value of the curve obtained by data fitting, which is generally 100%±20%. The experimental data were fitted by calculating and analyzing with Dotmatics data analysis software.
On the technique in general: Time-resolved FRET reads energy transfer from a long-lived donor to a nearby acceptor.

The test system of experiment [2] is EGFR Del19/T790M/C797S (H1975-clone #28). As to the kind of experiment: EGFR degradation HTRF assay, H1975-clone #28 DTC cells. The conditions noted are these: H1975 # 28 DTC cells; for DC50: EGFR degradation, IC50 (DC50) from curve fit, read-out: DC50(nM) H1975 # 28 DTC; for Dmax (%) H1975 # 28 DTC: maximum percentage of inhibition (degradation). Summed up:
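Cells were dosed on day 2 with an 8-point, 5-fold dilution series starting at 10 uM final and incubated 16h at 37° C. After lysis for 1 hour, HTRF antibodies were added overnight at room temperature and the plate was read at 665/620 nm. Degradation was normalised to DMSO wells and fitted for DC50 and Dmax.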

For experiment [3], the target named is T1, EGFR L858R/C797S (BaF3 LC cells) (Homo sapiens, UniProt P00533, C797S/L858R).
T1 construct: expressed in transfected cells; host or cells: BaF3
T1 sequence (P00533 25-1210 C797S/L858R): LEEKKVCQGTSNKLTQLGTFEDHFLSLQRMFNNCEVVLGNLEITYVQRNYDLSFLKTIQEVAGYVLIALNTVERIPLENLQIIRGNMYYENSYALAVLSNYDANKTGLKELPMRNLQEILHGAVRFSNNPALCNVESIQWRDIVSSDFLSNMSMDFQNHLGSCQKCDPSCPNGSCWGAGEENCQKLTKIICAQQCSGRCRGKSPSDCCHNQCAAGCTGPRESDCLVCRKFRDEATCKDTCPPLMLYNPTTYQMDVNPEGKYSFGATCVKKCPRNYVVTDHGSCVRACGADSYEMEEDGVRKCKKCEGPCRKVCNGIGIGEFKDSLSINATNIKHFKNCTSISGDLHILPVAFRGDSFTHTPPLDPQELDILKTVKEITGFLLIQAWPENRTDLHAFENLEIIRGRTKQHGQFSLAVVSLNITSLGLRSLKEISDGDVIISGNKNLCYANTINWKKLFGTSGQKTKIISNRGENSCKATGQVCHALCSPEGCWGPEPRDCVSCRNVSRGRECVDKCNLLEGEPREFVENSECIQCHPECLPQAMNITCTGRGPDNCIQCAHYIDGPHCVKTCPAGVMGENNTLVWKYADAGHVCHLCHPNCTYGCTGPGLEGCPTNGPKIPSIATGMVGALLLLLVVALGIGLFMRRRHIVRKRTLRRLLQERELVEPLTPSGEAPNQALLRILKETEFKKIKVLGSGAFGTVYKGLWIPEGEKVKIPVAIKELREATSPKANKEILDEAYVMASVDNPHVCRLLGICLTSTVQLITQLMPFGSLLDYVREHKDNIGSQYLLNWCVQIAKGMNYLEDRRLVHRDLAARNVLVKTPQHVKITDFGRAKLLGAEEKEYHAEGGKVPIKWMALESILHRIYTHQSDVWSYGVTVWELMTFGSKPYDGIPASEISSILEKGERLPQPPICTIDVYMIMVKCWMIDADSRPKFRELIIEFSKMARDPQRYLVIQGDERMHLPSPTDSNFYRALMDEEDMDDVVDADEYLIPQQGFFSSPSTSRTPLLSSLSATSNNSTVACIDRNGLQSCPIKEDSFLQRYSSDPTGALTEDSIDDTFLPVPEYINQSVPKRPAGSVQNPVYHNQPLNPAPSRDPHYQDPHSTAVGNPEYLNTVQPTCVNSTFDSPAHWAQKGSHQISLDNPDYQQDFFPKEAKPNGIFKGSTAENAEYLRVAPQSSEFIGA
As to the kind of experiment: EGFR degradation HTRF assay, BaF3 LC cells. The conditions noted are these: BaF3 LC, 16h treatment; for Dmax: maximum percentage of degradation, read-out: BaF3 LC Dmax (%); for DC50: read-out: BaF3 LC DC50.

Experiment [4] has as its target T2, EGFR L858R/T790M/C797S (BaF3-LTC cells) (Homo sapiens, UniProt P00533, C797S/L858R/T790M).
T2 construct: expressed in transfected cells; host or cells: BaF3
As to the kind of experiment: EGFR degradation HTRF assay, BaF3-LTC cells. The conditions noted are these: BaF3-LTC cells; for DC50: EGFR degradation, IC50 (DC50) from curve fit, read-out: DC50(nM) BaF3-LTC; for Dmax: maximum percentage of inhibition (degradation), read-out: Dmax (%) BaF3-LTC. In short, it runs like this: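 Cells treated 16 h at 37 °C, 5% CO2 in medium with 0.2% DMSO; top final concentration 10 uM, 5-fold dilution, 8 doses. Lysates read by HTRF (665/620 nm); degradation % versus DMSO high control, DC50 from four-parameter fit, Dmax as maximal degradation.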

T2 sequence (P00533 25-1210 T790M/C797S/L858R): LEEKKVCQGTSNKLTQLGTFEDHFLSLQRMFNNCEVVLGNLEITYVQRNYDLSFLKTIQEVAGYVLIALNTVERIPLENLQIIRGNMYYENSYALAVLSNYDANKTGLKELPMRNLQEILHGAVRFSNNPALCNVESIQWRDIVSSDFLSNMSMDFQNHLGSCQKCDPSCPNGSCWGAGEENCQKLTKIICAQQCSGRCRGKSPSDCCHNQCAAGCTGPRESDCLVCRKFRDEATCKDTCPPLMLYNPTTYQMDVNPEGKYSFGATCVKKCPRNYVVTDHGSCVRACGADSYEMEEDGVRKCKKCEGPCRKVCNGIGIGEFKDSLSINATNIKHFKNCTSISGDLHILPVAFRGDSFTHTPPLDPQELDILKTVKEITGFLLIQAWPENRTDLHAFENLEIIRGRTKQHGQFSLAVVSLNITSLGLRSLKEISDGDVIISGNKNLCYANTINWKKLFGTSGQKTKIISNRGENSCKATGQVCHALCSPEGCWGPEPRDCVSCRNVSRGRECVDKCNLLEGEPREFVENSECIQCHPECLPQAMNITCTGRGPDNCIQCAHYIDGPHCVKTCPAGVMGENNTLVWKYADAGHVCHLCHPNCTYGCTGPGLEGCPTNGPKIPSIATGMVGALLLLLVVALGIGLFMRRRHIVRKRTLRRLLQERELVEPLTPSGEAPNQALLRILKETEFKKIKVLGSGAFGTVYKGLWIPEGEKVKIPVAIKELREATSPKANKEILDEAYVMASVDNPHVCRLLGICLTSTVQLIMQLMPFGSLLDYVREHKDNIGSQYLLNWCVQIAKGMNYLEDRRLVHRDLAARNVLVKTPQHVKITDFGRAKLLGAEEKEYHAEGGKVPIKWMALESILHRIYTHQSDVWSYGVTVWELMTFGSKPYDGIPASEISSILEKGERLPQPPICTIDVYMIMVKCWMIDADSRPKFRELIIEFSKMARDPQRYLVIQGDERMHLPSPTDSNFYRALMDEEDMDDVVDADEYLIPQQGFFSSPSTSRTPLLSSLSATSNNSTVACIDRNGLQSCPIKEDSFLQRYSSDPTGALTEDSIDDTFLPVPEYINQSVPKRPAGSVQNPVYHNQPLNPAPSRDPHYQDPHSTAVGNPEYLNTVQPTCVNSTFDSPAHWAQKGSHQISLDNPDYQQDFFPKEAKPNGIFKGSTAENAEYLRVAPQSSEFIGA

On to `CCOc1cc(N2CCC(N3CCN(CC4CN(c5cc(F)cc6c5oc(=O)n6C5CCC(=O)NC5=O)C4)CC3)CC2)c(CC)cc1Nc1ncc(Br)c(Nc2ccc3nc(CC)ccc3c2P(C)(C)=O)n1` (stereo not shown) [Example 479, 3-(7-(3-((4-(1-(4-((5-bromo-4-((5-(dimethylphosphoryl)-2-ethylquinolin-6-yl)amino)pyrimidin-2-yl)amino)-5-ethoxy-2-ethylphenyl)piperidin-4-yl)piperazin-1-yl)methyl)azetidin-1-yl)-5-fluoro-2-oxobenzo[d]oxazol-3(2H)-yl)piperidine-2,6-dione], for which, in experiment [1], the “H1975 #23 DC Dmax (%)” value is listed as 76.53% and the half-maximal degradation concentration (DC50) amounted to 4.91 nM. For the same compound, in experiment [2], the half-maximal degradation concentration (DC50) was found to be 2.81 nM and the “Dmax (%) H1975 # 28 DTC” value is listed as 95.6%. Further, in experiment [3], the greatest degradation seen (Dmax) was found to be 82.7% and the DC50 is 20.3 nM. Also, in experiment [4], the DC50 came out at 7.8 nM and the maximal degradation (Dmax) was 88.8%.

Regarding `CCOc1cc(N2CCC(N3CCN(CCc4ccc(F)c5c4oc(=O)n5C4CCC(=O)NC4=O)CC3)CC2)c(CC)cc1Nc1ncc(Br)c(Nc2ccc3nc(CC)ccc3c2P(C)(C)=O)n1` (stereo not shown) [Example 505, 3-(7-(2-(4-(1-(4-((5-bromo-4-((5-(dimethylphosphoryl)-2-ethylquinolin-6-yl)amino)pyrimidin-2-yl)amino)-5-ethoxy-2-ethylphenyl)piperidin-4-yl)piperazin-1-yl)ethyl)-4-fluoro-2-oxobenzo[d]oxazol-3(2H)-yl)piperidine-2,6-dione], the “H1975 #23 DC Dmax (%)” value in experiment [1] is recorded as 68.68%. In addition, the 50% degradation concentration (DC50) in experiment [1] amounted to 3.17 nM; in experiment [2] it was 0.925 nM; in experiment [3] it was 8.88 nM; in experiment [4] it was 9.43 nM. Besides, the “Dmax (%) H1975 # 28 DTC” value in experiment [2] is listed as 77.6%.

For `CCOc1cc(N2CCC(N3CCN(CCc4cc5oc(=O)n(C6CCC(=O)NC6=O)c5cc4C)CC3)CC2)c(CC)cc1Nc1ncc(Br)c(Nc2cc(F)c3nc(CC)ccc3c2P(C)(C)=O)n1` (stereo not shown) [Example 553, 3-(6-(2-(4-(1-(4-((5-bromo-4-((5-(dimethylphosphoryl)-2-ethyl-8-fluoroquinolin-6-yl)amino)pyrimidin-2-yl)amino)-5-ethoxy-2-ethylphenyl)piperidin-4-yl)piperazin-1-yl)ethyl)-5-methyl-2-oxobenzo[d]oxazol-3(2H)-yl)piperidine-2,6-dione], in experiment [1], the “H1975 #23 DC Dmax (%)” value is listed as 53.56% and the DC50 was found to be 0.828 nM. Moreover, in experiment [2], the DC50 stood at 0.712 nM and the “Dmax (%) H1975 # 28 DTC” value is reported as 61.54%. For the same compound, in experiment [3], the maximal degradation (Dmax) is 93.3% and the DC50 was 1.23 nM. In experiment [4], the DC50 is 2.49 nM and the Dmax amounted to 90.7%.

For the compound `CCOc1cc(N2CCC(N3CCN(CC4CN(c5cc(F)c([C@H]6CCC(=O)NC6=O)c(F)c5)C4)CC3)CC2)c(CC)cc1Nc1ncc(Br)c(Nc2ccc3c(=O)n(CC)ncc3c2P(C)(C)=O)n1` [Example 551, (R)-3-(4-(3-((4-(1-(4-((5-bromo-4-((5-(dimethylphosphoryl)-2-ethyl-1-oxo-1,2-dihydrophthalazin-6-yl)amino)pyrimidin-2-yl)amino)-5-ethoxy-2-ethylphenyl)piperidin-4-yl)piperazin-1-yl)methyl)azetidin-1-yl)-2,6-difluorophenyl)piperidine-2,6-dione], in experiment [1], the “H1975 #23 DC Dmax (%)” value is 84.14%. Also, the half-maximal degradation concentration (DC50) in experiment [1] came to 5.64 nM; in experiment [2], 1.62 nM; in experiment [3] it was 46.5 nM; in experiment [4], 6.19 nM. Moreover, the “Dmax (%) H1975 # 28 DTC” value in experiment [2] is on record as 90.57%.

As for `CCOc1cc(N2CCC(N3CCN(CCc4ccc5c(c4)oc(=O)n5C4CCC(=O)NC4=O)CC3)CC2)c(CC)cc1Nc1ncc(Br)c(Nc2ccc3nc(CC)ccc3c2P(C)(C)=O)n1` (stereo not shown) [Example 463, 3-(6-(2-(4-(1-(4-((5-bromo-4-((5-(dimethylphosphoryl)-2-ethylquinolin-6-yl)amino)pyrimidin-2-yl)amino)-5-ethoxy-2-ethylphenyl)piperidin-4-yl)piperazin-1-yl)ethyl)-2-oxobenzo[d]oxazol-3(2H)-yl)piperidine-2,6-dione], the “H1975 #23 DC Dmax (%)” value in experiment [1] is recorded as 56.75%. Further, the 50% degradation concentration (DC50) in experiment [1] worked out at 0.951 nM; in experiment [2], 0.26 nM; in experiment [3], 6.88 nM; in experiment [4], 3.34 nM. Also, in experiment [2], the “Dmax (%) H1975 # 28 DTC” value came to 82.73%. Also, the greatest degradation seen (Dmax) in experiment [3] came out at 85.5%; in experiment [4], 92.6%.

In the case of `CCc1ccc2c(P(C)(C)=O)c(Nc3nc(Nc4cc(CC)c(N5CCC(N6CCN(C(=O)[C@@H]7CCN(c8cc(F)c([C@H]9CCC(=O)NC9=O)c(F)c8)C7)CC6)CC5)cc4OC)ncc3Br)cc(F)c2n1` [Example 533, (R)-3-(4-((R)-3-(4-(1-(4-((5-bromo-4-((5-(dimethylphosphoryl)-2-ethyl-8-fluoroquinolin-6-yl)amino)pyrimidin-2-yl)amino)-2-ethyl-5-methoxyphenyl)piperidin-4-yl)piperazine-1-carbonyl)pyrrolidin-1-yl)-2,6-difluorophenyl)piperidine-2,6-dione], in experiment [1], the “H1975 #23 DC Dmax (%)” value was found to be 73.47% and the half-maximal degradation concentration (DC50) came out at 7.47 nM. Also, in experiment [2], the DC50 was 1.18 nM and the “Dmax (%) H1975 # 28 DTC” value was found to be 83.78%. In experiment [3], the greatest degradation seen (Dmax) came to 90.8% and the DC50 came out at 28.8 nM. In experiment [4], the half-maximal degradation concentration (DC50) is 5.05 nM and the Dmax came to 97.2%.

`CCOc1cc(N2CCC(N3CCN(CCc4ccc5c(c4)oc(=O)n5C4CCC(=O)NC4=O)CC3)CC2)c(CC)cc1Nc1ncc(Br)c(Nc2cc(F)c3nc(CC)ccc3c2P(C)(C)=O)n1` (stereo not shown) [Example 500, 3-(6-(2-(4-(1-(4-((5-bromo-4-((5-(dimethylphosphoryl)-2-ethyl-8-fluoroquinolin-6-yl)amino)pyrimidin-2-yl)amino)-5-ethoxy-2-ethylphenyl)piperidin-4-yl)piperazin-1-yl)ethyl)-2-oxobenzo[d]oxazol-3(2H)-yl)piperidine-2,6-dione]: in experiment [1], the “H1975 #23 DC Dmax (%)” value is 55.74% and the half-maximal degradation concentration (DC50) is 1.11 nM. Besides, in experiment [2], the DC50 was 0.413 nM and the “Dmax (%) H1975 # 28 DTC” value was 71.9%. In experiment [3], the greatest degradation seen (Dmax) was determined as 92% and the DC50 came out at 1.11 nM. For the same compound, in experiment [4], the DC50 was determined as 2.42 nM and the Dmax came to 84.8%.
